{
  "source": "patent US20220348883A1",
  "about": "“HIGH-DENSITY CELL CULTURE METHOD” (AJINOMOTO CO., INC., priority 2020, published 2022)",
  "tested_on": "iPS cell 1210B2 strain",
  "conditions": "StemFit AK03N+10 mg/L choline chloride vs StemFit AK03N; suspension culture seeded at 6×10^5 cells/mL; viable cells measured on 8th day of culture; n=1",
  "experimental": "In the following Example, the proliferation effect of induced pluripotent stem cells (iPS cells) by choline were evaluated. As the iPS cell, 1210B2 strain purchased from iPS Academia Japan was used. In addition, as a medium for iPS cells, a commercially available StemFit AKO3N (Ajinomoto Co., Inc.) was used.\nUsing a 30 mL single use bioreactor for iPS cells (ABLE: BWV-S03A), iPS cell 1210B2 strain was seeded in StemFit AK03N+10 μM Y-27632 (Wako: 034-24024) at a cell density of 6×10^5 cells/mL and the cells were cultured with stirring in a CO2 incubator under the conditions of 37° C., CO2 concentration=5%, stirring speed=120 rpm. On the second day of seeding, 70% of the medium was replaced with StemFit AK03N. […] The cells were transferred to a micro bioreactor ambr15 (sartorius:001-0881), and stirring culture was continued under the conditions of 37° C., pH=7.2, dissolved oxygen concentration=20%, stirring speed=300 rpm. […] On the 8th day of culture, the number of viable cells was measured using Vi-CELL™ XR (Beckman Coulter), a live/dead cell autoanalyzer.",
  "data": [
    {"compound": "C[N+](C)(C)CCO.[Cl-]", "note": "[choline, choline chloride]", "values": [
      {"measurement": "influence of choline on the proliferation of iPS cells (number of viable cells)", "value": "cell proliferation promoting effect"}
    ]}
  ]
}
